# Experimental data: paper PMC6019362, “^99mTc标记T7肽及其在裸鼠非小细胞肺癌模型体内的生物分布研究” (Chinese Journal of Lung Cancer, 2014)
# How the values were obtained:
# [1] = assay type: in vitro ADME, human
# Protocol: 薄层色谱法检测标记率及放化纯度，以硅胶板为固定相，丙酮作为展开系统，毛细管点样，放射性γ计数器进行检测。稳定性检测:取500 μL的^99mTc-T7溶液分别加入1 mL的生理盐水和1 mL人血清中，37 ℃孵育8 h，用薄层色谱法检测放化纯度。
# 荷人NCI-H157裸鼠肺癌模型 = test system: 荷人NCI-H157裸鼠肺癌模型; set-up: species or system BALB/c裸鼠; details: in vivo
# Protocol: 将NCI-H157细胞株培养至对数生长期，弃去培养液，PBS清洗2次，0.25%胰酶消化，收集细胞，离心，生理盐水重悬并计数。无菌条件下，每只裸鼠右后肢背部皮下注射6×10^6个/200 μL的NCI-H157细胞悬液。裸鼠置于天津市实验动物中心SPF级动物房饲养，当肿瘤长径达0.6 cm-1.0 cm时进行实验(约30 d)。 将荷瘤裸鼠随机分成5组(0.5 h、1 h、2 h、4 h和8 h)，每组5只，分别尾静脉注射3.7 MBq/100 μL的^99mTc-T7溶液，注射后分别在0.5 h、1 h、2 h、4 h和8 h股动脉放血处死，分别取心、肝、脾、肺、肾、肌肉、骨骼、脑、肿瘤、小肠、胃，称湿重，测量γ计数，计算各脏器的每克组织注射剂量百分比(%ID/g)并分析肿瘤/非肿瘤(T/NT)比值。
sequence,measurement,setting,value
"TMPFLFCNVNDVCNFASRNDYSKKK [^99mTc-T7, 羰基锝法标记的肿瘤抑素T7肽, ^99mTc(CO)3^+ labelled 25-mer, integrin αvβ3 targeted imaging probe]",放化纯 (radiochemical purity) after incubation,[1],> 90%
same,肿瘤/肌肉放射性比值 (T/NT),荷人NCI-H157裸鼠肺癌模型,> 5
same,血脑屏障通过 (blood-brain barrier passage),荷人NCI-H157裸鼠肺癌模型,不能正常通过血脑屏障
same,8 h血放射性摄取值 (%ID/g) 相对于0.5 h,"荷人NCI-H157裸鼠肺癌模型; mouse, iv, 3.7 MBq, 8 h",26%
